Data on 88 molecules can be found in a melting point compilation (Tetko et al.; mined from patent text by program, amines drawn as free bases though some values may be those of a salt).

The melting point is the temperature of the solid-liquid transition. `CCCCCCCCCN=C=O` came in with a melting point of 104 to 105 °C.

The molecule `O=NCNC1=Nc2ccc(Cl)cc2C(c2ccccc2F)=NC1` registered a melting point of 170 to 172 °C.

`Cc1nn(C)c(Cl)c1S(=O)(=O)N1CCC2(CC1)CSC1=C(O2)c2ccccc2C(=O)C1=O` registered a melting point of 247 to 249 °C.

As to `CS(=O)(=O)c1ccc(-c2sc(CC#N)nc2-c2ccc(F)cc2)cc1`, the melting point was 151 to 152 °C.

On to `COc1ccc(-c2cc(-c3cccc(Br)n3)nc(-c3cccc(Br)n3)c2)cc1`, for which the melting point is 205 °C.

The molecule `CN1CCN(CC2=NC(NC(=O)OCc3ccccc3)C(=O)N(C(C)(C(N)=O)c3ccccc3)c3ccccc32)CC1` (stereo not drawn) showed a melting point of 65 to 70 °C.

Turning to `CC(C)(O)c1ccc(-c2cnc3c(n2)N(CCN2CCOCC2)CC(=O)N3)cn1`, the melting point lay within 239 to 241 °C.

For the molecule `CSc1nc2ccccc2c(-c2ccccc2)c1C(=O)N(C)Cc1cc(C(F)(F)F)cc(C(F)(F)F)c1`, the melting point lay in the range of 144 to 145 °C.

Molecule `CCOC(=O)c1c(-c2ccccc2)c2ccc(OC)cc2[nH]c1=O` registered a melting point of 175 to 177 °C.

On to `C=CCOc1cc(OC)ccc1C(=O)c1ccccc1`, for which the melting point came to 40 °C.

In turn, `CN1N=CC=Cc2ccccc21` registered a melting point of 190 to 192 °C.

`O=Cc1c2n(c3ccc(Cl)cc13)CCC2` gave a melting point of 179 to 180 °C.

`O=c1cc(N2CCSCC2)oc2c1ccc1ccccc12` registered a melting point of 171 to 173 °C.

For `COc1ccc2c(=O)c3[nH]c(C(=O)O)cc(=O)c3oc2c1`, the melting point lay in the range of 253 to 254 °C.

`CNC(C)=CC(=O)CS(=O)(=O)NC(C)C` had a melting point of 83 to 85 °C.

`CS(=O)c1ccc(-c2nn(Cc3ccc(Cl)cc3Cl)c(=O)cc2-c2ccc(F)cc2)cc1` (stereo not drawn) had a melting point of 214 °C.

Turning to `O=C1NC(=O)C(c2c[nH]c3ccccc23)=C1c1ccccc1`, the melting point amounted to 256 °C.

In turn, `COc1ccc(-c2ccc3cnc(Nc4ccc(C5CCN(CC(N)=O)CC5)cc4)nn23)cn1` registered a melting point of 217 °C.

Molecule `N#Cc1ccc2nc(-c3ccc(Br)cc3)cn2c1` returned a melting point of 262 to 264 °C.

Turning to `CN(C(CCn1c(=O)[nH]c2cscc2c1=O)C(=O)NO)S(=O)(=O)c1ccc(Oc2ccccc2)cc1` (stereo not drawn), the melting point was 135 to 137 °C.

In the case of `O=S1(=O)N=CN(C2CC2)c2cc(Br)c(F)cc21`, the melting point lay in the range of 218 to 219 °C.

Turning to `CC(=O)OC1(C(=O)CO)CCC2C3CCC4=CC(=O)C=CC4(C)C3C(O)CC21C` (stereo not drawn), the melting point is 223 to 224 °C.

`CCCc1nc2c(N)nc3cc(OCc4cccc([N+](=O)[O-])c4)ccc3c2n1CC(C)C` gave a melting point of 175 to 176 °C.

With `Fc1ccc(-n2ncc3c2-c2ccccc2C3)cc1`, the melting point was 104 to 105 °C.

Regarding `CSCC(C)NC(=O)c1c(I)cccc1C(=O)Nc1ccc(C2(c3ccc(Cl)cc3)CC2(F)F)cc1C` (stereo not drawn), the melting point lay in the range of 229 to 232 °C.

For the molecule `N#Cc1c[nH]c2c(NS(=O)(=O)c3ccc(N)nc3)cccc12`, the melting point is > 300 °C.

In turn, `CCCCCCCCCCCCCCCCOCC1OCCCC1=O` (stereo not drawn) showed a melting point of 42 to 43.5 °C.

`O=C(Cn1c(-c2ccc(Cl)cc2)nc2cccnc21)Nc1ccccc1` yielded a melting point of 240 to 242 °C.

In turn, `Cc1cc(Nc2ccc(Cl)cc2)nc(-c2cccc(Cl)n2)n1` returned a melting point of 239 °C.

`O=c1[nH]cnc2c1-c1ccc(Cl)cc1C(c1ccccc1)=NC2`: the melting point was in the range of 226 to 229 °C.

In turn, `CCOC(=O)c1cc2ccc(Oc3ccc(N)cc3)cc2oc1=O` displayed a melting point of 136 to 138 °C.

For `COc1cc(OC)c([N+](=O)[O-])cc1[N+](=O)[O-]`, the melting point lay in the range of 153 to 155 °C.

In the case of `CCOC(=O)/C(F)=C/c1ccc(Br)cc1`, the melting point is 59 to 61 °C.

In turn, `O=C(c1ccc(F)cc1)C1CCN(CC2CCc3onc(-c4ccccc4F)c3C2=O)CC1` (stereo not drawn) registered a melting point of 99 to 102 °C.

With `O=c1ccsn1Cc1ccc(Cl)cc1`, the melting point lay within 88 to 90 °C.

As for `CC(=O)Nc1c(F)ccc2c1CCC(C)N2` (stereo not drawn), the melting point lay within 168 to 170 °C.

`Cc1nc(C)c(Cl)c(NCc2ccc(Oc3ccc4ncc([N+](=O)[O-])n4n3)c(OC(F)F)c2)n1` displayed a melting point of 191 to 194 °C.

Turning to `O=C(CCCCCNC(=O)CCc1ccco1)NO`, the melting point is 127 to 128 °C.

For `O=C(O)CNC1=Nc2ccccc2C(c2ccccc2)=NC1NC(=O)Nc1ccc(Cl)cc1` (stereo not drawn), the melting point came to 186 °C.

As for `CCOc1cccc(-c2nc3n(n2)CCc2ccccc2-3)c1`, the melting point fell in the range of 102 to 103 °C.

For `CN(C)CCn1c(-c2cccc(C(F)(F)F)c2)cc2c1CCSC2`, the melting point was 88.5 to 90 °C.

On to `COc1cc2c(O)c3c(c(-c4ccc5c(c4)OCO5)c2cc1OC)C(=O)OC3`, for which the melting point fell in the range of 280 to 282 °C.

Regarding `COc1cc2c(cc1OC)CN(CCCc1ccc(NC(=O)c3cccc4c(=O)c5cccc(F)c5[nH]c34)cc1)CC2`, the melting point is 166 °C.

`CC(C)(C)c1nc(C(N)=S)nc(C(C)(C)C)c1O` gave a melting point of 169 to 171 °C.

The molecule `CCCC(=O)C1=C(O)CC(c2c(C)c(C)c(C)c(C)c2S(C)(=O)=O)CC1=O` (stereo not drawn) had a melting point of 132 °C.

`COC(=O)c1cccc(-c2nc(CCl)c(C)o2)c1` yielded a melting point of 119 to 120 °C.

Molecule `CCCNC(=O)Oc1ccc(C(O)(CC)c2ccc(Cl)cc2)cc1` (stereo not drawn) displayed a melting point of 71 to 72 °C.

In turn, `Cc1ccc(C(=O)NC/C=C\COc2cc(CN3CCCCC3)ccn2)s1` registered a melting point of 71 to 73 °C.

In turn, `CCOc1cccc(NC(=O)Nc2ccc(N3CCN(C(=O)Nc4ccc(OCCO)cc4C(F)(F)F)CC3)cc2)c1` gave a melting point of 108 to 110 °C.

In turn, `CCOC(=O)N(CC(=O)O)C(=O)c1c(F)ccc2c(C(F)(F)F)c(OC)ccc12` gave a melting point of 136 to 138 °C.

Turning to `CCOC(=O)c1ccc(N2C(=O)CCC2CO)c([N+](=O)[O-])c1` (stereo not drawn), the melting point lay in the range of 90 to 95 °C.

`CC(=O)NCC1CN(c2c(F)c(N)c3c(=O)c(C(=O)O)cn(C4CC4)c3c2F)CCO1` (stereo not drawn): the melting point is 228 to 229 °C.

Molecule `CN(c1cccc2cc(-c3nccs3)[nH]c12)S(=O)(=O)c1ccsc1C(=O)O` showed a melting point of 225 °C.

`CCCc1nc2c(N)nc3cc(Oc4cccc([N+](=O)[O-])c4)ccc3c2n1CC(C)C`: the melting point lay in the range of 198 to 200 °C.

In turn, `COC(=O)c1ccncc1C(=O)c1ccc(-n2ccnc2)cc1` had a melting point of 125 to 128 °C.

Molecule `COc1ccc(-c2ccccc2)cc1OC1CCCC1` yielded a melting point of 62 to 64 °C.

`CCCc1c(COCCOc2ccc(-c3nnn[nH]3)cc2)ccc(C(C)=O)c1O`: the melting point was in the range of 170 to 172 °C.

With `Cc1cc([N+](=O)[O-])ccc1N=C1SCC2(CCCC2)N1C1CCCC1`, the melting point fell in the range of 118 to 119 °C.

Consider `CC1(C)CC(SCc2cc3c(cc2Cl)OCO3)=NO1`, for which the melting point is 88 °C.

In the case of `CN(C)CCCOc1ccc(-c2ccc3nnn(Cc4ccc5ncccc5c4)c3n2)cc1F`, the melting point was 102 to 105 °C.

Take `O=C(O)CN1C(=O)C(=Cc2cccc3ccccc23)SC1=S`: the melting point lay within 241 to 244 °C.

As to `CC(C)n1cnc2c(Nc3ccc(F)cc3)nc(Cl)nc21`, the melting point worked out at 154 °C.

`CC(C)C1=C(C#N)C(c2cccc(C#N)c2Br)c2c[nH]nc2N1` (stereo not drawn): the melting point was > 250 °C.

`CC(C)N(C(=O)CN1C(=O)CC(=O)N(c2ccccc2)c2ccccc21)c1ccc(C(F)(F)F)cc1` showed a melting point of 186 to 188 °C.

With `C=CCn1cc2cc3ncc(-c4ccc(OC)c(F)c4)nc3cc2n1`, the melting point lay within 196 to 200 °C.

`CCOC(=O)C(=O)NC(=O)N1CC1C#N` (stereo not drawn) yielded a melting point of 104 to 106 °C.

`Nc1ccc(Oc2c(NCc3ccco3)cc(C(=O)O)cc2S(N)(=O)=O)cc1` returned a melting point of 233 to 235 °C.

Turning to `O=C(O)[C@@H]1CCCN1C(=O)CCCS`, the melting point lay in the range of 157 to 158 °C.

Consider `O=C1c2ccccc2C(F)(F)C(F)(F)c2ccccc21`, for which the melting point was in the range of 70 to 75 °C.

Turning to `Oc1cc(Cl)ccc1Br`, the melting point worked out at 56 °C.

Molecule `O=C(O)CCCc1ccc(NS(=O)(=O)c2ccc(Cl)cc2)cn1` returned a melting point of 178 to 180 °C.

Molecule `CC1CN(Cc2ccccc2)C(=O)C(=C2SC=CS2)C1=O` (stereo not drawn) yielded a melting point of 168 to 170 °C.

In turn, `COc1c(C)cccc1C(=N)N` returned a melting point of 72 to 74 °C.

Molecule `Cn1nnnc1-n1cc(C(=O)O)c(=O)c2cc(F)c(Cl)nc21` had a melting point of 213 to 220 °C.

Molecule `O=C(O)C1CC1(C(=O)O)c1cccc([N+](=O)[O-])c1` (stereo not drawn) yielded a melting point of 167 to 170 °C.

For the molecule `COc1ccc(-n2nc(CCN)cc2-c2ccc(Cl)cc2)cc1`, the melting point is 95 to 97 °C.

For the molecule `Cc1c(Cc2cccc(C(F)(F)F)c2)oc2c(-c3cc(C(=O)NCCO)ccn3)cccc12`, the melting point lay within 205 to 206 °C.

As for `CC(=O)Nc1ccn(C2OC(COC(C)=O)CC2OC(C)=O)c(=O)n1` (stereo not drawn), the melting point lay within 174 to 177 °C.

On to `Cc1oc2ccccc2c1C(=O)NCc1ccc2c(Br)c(OCC#N)ccc2c1`, for which the melting point was 180 to 182 °C.

`CCCCOC(=O)C(C)(NC(=O)c1cc([N+](=O)[O-])cc([N+](=O)[O-])c1)C(C)C` (stereo not drawn) returned a melting point of 110 to 113 °C.

`O=c1c(O)c(-c2ccccc2-c2ccc(CNc3nc(C(F)(F)F)nc4c3CCCC4)cc2)c1=O` displayed a melting point of 193 °C.

For `COc1ccc(CN/C=C2\C(=O)NC(=O)c3cccc(Br)c32)cc1O`, the melting point was in the range of 204 to 206 °C.

Take `CS(=O)(=O)c1cc(OC[C@@H](O)CN[C@H]2CC[C@H](c3ccc(C(=O)N4Cc5ccccc5C4)cc3)CC2)ccc1O`: the melting point amounted to 110 °C.

As to `C=CCn1c(NCC)nc(N2CCc3ccccc3CC2)c(C#N)c1=O`, the melting point is 172 to 177 °C.

In the case of `Nc1ccc([N+](=O)[O-])cc1OCCCCOc1cc([N+](=O)[O-])ccc1N`, the melting point was in the range of 226 to 228 °C.

As for `COC(=O)c1cc(-c2ccc(C)cc2)c(O)c(C(C)(C)C)c1`, the melting point is 105 °C.

With `O=C(c1ccccc1)N1C(=O)c2cccnc2Nc2ccccc21`, the melting point lay in the range of 198 to 201 °C.

For `CCCCc1nn(-c2cc(N)ccc2Cl)c(=O)n1Cc1ccc(-c2ccccc2S(=O)(=O)NC(=O)OC(C)(C)C)cc1`, the melting point is 185 to 188 °C.
